Data as given in patent publication US20090018134A1, “Compounds - 945” (AstraZeneca AB, priority 2007, published 2009).

Molecular target: T1, mTOR (Homo sapiens, UniProt P42345)
T1 construct: FLAG; made in house
Test: In Vitro mTOR Kinase Assay (Echo), Test (a)(ii)
Assay type: biochemical
Details: read-out: mTOR Kinase Assay (Echo)
Procedure, shortened: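 Inhibition of truncated mTOR (1362-2549, FLAG-tagged, purified from stably transfected HEK293 cells) is measured as reduced AlphaScreen signal from a phospho-T389-recognising antibody bound to the biotinylated peptide product. Kinase incubation lasts 2 hours at room temperature. Potency is given as IC50.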

T1 sequence (P42345 1362-2549): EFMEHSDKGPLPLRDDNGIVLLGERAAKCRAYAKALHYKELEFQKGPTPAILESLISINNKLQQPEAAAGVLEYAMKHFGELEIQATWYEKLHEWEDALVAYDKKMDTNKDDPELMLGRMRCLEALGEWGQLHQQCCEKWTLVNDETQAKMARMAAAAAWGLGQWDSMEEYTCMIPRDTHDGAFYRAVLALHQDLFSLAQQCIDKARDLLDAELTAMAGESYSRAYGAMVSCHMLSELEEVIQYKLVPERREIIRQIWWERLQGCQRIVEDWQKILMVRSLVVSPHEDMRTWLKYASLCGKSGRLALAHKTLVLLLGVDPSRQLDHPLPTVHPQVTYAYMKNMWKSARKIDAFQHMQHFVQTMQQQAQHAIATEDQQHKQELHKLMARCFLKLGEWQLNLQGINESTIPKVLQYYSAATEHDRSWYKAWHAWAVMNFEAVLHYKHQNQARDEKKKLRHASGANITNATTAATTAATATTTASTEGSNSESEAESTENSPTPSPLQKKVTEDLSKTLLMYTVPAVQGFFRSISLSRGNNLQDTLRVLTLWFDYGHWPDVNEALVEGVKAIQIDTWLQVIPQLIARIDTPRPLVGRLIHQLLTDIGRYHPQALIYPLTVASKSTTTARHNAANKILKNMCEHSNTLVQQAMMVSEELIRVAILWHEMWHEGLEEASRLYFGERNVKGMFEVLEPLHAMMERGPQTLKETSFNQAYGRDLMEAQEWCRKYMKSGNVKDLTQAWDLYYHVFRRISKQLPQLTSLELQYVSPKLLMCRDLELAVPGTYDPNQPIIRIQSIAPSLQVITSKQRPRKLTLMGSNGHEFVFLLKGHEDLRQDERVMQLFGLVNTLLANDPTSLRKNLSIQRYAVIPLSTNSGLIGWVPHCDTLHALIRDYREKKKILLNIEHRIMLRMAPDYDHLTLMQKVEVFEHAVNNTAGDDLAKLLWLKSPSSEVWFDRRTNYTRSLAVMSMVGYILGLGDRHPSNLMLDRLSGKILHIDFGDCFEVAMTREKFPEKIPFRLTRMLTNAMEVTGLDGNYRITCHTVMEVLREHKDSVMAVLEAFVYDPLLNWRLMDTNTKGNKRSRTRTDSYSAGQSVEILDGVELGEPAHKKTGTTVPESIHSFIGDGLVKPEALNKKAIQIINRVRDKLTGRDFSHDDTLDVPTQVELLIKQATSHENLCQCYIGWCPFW

Question: `CC(C)S(=O)(=O)C1(c2cc(N3CCOC[C@@H]3C)nc(-c3ccc(NC(=O)NCCN(C)C)cc3)n2)CC1` [Example 7g, 3-(2-dimethylaminoethyl)-1-[4-[4-[(3S)-3-methylmorpholin-4-yl]-6-(1-propan-2-ylsulfonylcyclopropyl)pyrimidin-2-yl]phenyl]urea] was tested. Which IC50 did it give?
Answer: The IC50 was 211 nM.

Question: Which IC50 does the source give for `CCCNC(=O)Nc1ccc(-c2nc(N3CCOC[C@@H]3C)cc(C3(S(=O)(=O)C(C)C)CC3)n2)cc1` [Example 7h, 3-[4-[4-[(3S)-3-methylmorpholin-4-yl]-6-(1-propan-2-ylsulfonylcyclopropyl)pyrimidin-2-yl]phenyl]-1-propyl-urea] here?
Answer: The IC50 was 11.6 nM.

Question: Which IC50 does the source give for `CC(C)CNC(=O)Nc1ccc(-c2nc(N3CCOC[C@@H]3C)cc(C3(S(=O)(=O)C(C)C)CC3)n2)cc1` [Example 7i, 1-[4-[4-[(3S)-3-methylmorpholin-4-yl]-6-(1-propan-2-ylsulfonylcyclopropyl)pyrimidin-2-yl]phenyl]-3-(2-methylpropyl)urea] here?
Answer: Its IC50 is 18.2 nM.

Question: Which IC50 does the source give for `CC(C)S(=O)(=O)C1(c2cc(N3CCOC[C@@H]3C)nc(-c3ccc(NC(=O)NCCCO)cc3)n2)CC1` [Example 7j, 3-(3-hydroxypropyl)-1-[4-[4-[(3S)-3-methylmorpholin-4-yl]-6-(1-propan-2-ylsulfonylcyclopropyl)pyrimidin-2-yl]phenyl]urea] here?
Answer: The IC50 was 10.5 nM.

Question: How did the IC50 turn out when `CC(C)S(=O)(=O)C1(c2cc(N3CCOC[C@@H]3C)nc(-c3ccc(NC(=O)Nc4ccc(C(F)(F)F)cc4)cc3)n2)CC1` [Example 7k, 1-[4-[4-[(3S)-3-methylmorpholin-4-yl]-6-(1-propan-2-ylsulfonylcyclopropyl)pyrimidin-2-yl]phenyl]-3-[4-(trifluoromethyl)phenyl]urea] was run?
Answer: Its IC50 is 4.82 nM.

Question: How did the IC50 turn out when `CC(C)S(=O)(=O)C1(c2cc(N3CCOC[C@@H]3C)nc(-c3ccc(NC(=O)Nc4ccccn4)cc3)n2)CC1` [Example 7l, 1-[4-[4-[(3S)-3-methylmorpholin-4-yl]-6-(1-propan-2-ylsulfonylcyclopropyl)pyrimidin-2-yl]phenyl]-3-pyridin-2-yl-urea] was run?
Answer: Its IC50 is 9.13 nM.

Question: With `CC(C)S(=O)(=O)C1(c2cc(N3CCOC[C@@H]3C)nc(-c3ccc(NC(=O)Nc4cnn(C)c4)cc3)n2)CC1` [Example 7m, 1-[4-[4-[(3S)-3-methylmorpholin-4-yl]-6-(1-propan-2-ylsulfonylcyclopropyl)pyrimidin-2-yl]phenyl]-3-(1-methylpyrazol-4-yl)urea] as the compound, how does the IC50 read?
Answer: Its IC50 is 5.04 nM.

Question: For `CNC(=O)Nc1ccc(-c2nc(N3CCOC[C@@H]3C)cc(C3(S(=O)(=O)c4ccc(F)cc4)CC3)n2)cc1` [Example 8, 1-[4-[4-[1-(4-Fluorophenyl)sulfonylcyclopropyl]-6-[(3S)-3-methylmorpholin-4-yl]pyrimidin-2-yl]phenyl]-3-methyl-urea], which IC50 is on record?
Answer: Its IC50 is 0.576 nM.

Question: For `CCNC(=O)Nc1ccc(-c2nc(N3CCOC[C@@H]3C)cc(C3(S(=O)(=O)c4ccc(F)cc4)CC3)n2)cc1` [Example 8a, 1-ethyl-3-[4-[4-[1-(4-fluorophenyl)sulfonylcyclopropyl]-6-[(3S)-3-methylmorpholin-4-yl]pyrimidin-2-yl]phenyl]urea], which IC50 is on record?
Answer: The IC50 was 0.96 nM.

Question: Which IC50 does the source give for `C[C@H]1COCCN1c1cc(C2(S(=O)(=O)c3ccc(F)cc3)CC2)nc(-c2ccc(NC(=O)NC3CC3)cc2)n1` [Example 8b, 3-cyclopropyl-1-[4-[4-[1-(4-fluorophenyl)sulfonylcyclopropyl]-6-[(3S)-3-methylmorpholin-4-yl]pyrimidin-2-yl]phenyl]urea] here?
Answer: The IC50 was 1.23 nM.

Question: How did the IC50 turn out when `CC(C)NC(=O)Nc1ccc(-c2nc(N3CCOC[C@@H]3C)cc(C3(S(=O)(=O)c4ccc(F)cc4)CC3)n2)cc1` [Example 8c, 1-[4-[4-[1-(4-fluorophenyl)sulfonylcyclopropyl]-6-[(3S)-3-methylmorpholin-4-yl]pyrimidin-2-yl]phenyl]-3-propan-2-yl-urea] was run?
Answer: The IC50 was 1.85 nM.

Question: For `C[C@H]1COCCN1c1cc(C2(S(=O)(=O)c3ccc(F)cc3)CC2)nc(-c2ccc(NC(=O)NC3CCC3)cc2)n1` [Example 8d, 3-cyclobutyl-1-[4-[4-[1-(4-fluorophenyl)sulfonylcyclopropyl]-6-[(3S)-3-methylmorpholin-4-yl]pyrimidin-2-yl]phenyl]urea], which IC50 is on record?
Answer: Its IC50 is 1.34 nM.

Question: How did the IC50 turn out when `C[C@H]1COCCN1c1cc(C2(S(=O)(=O)c3ccc(F)cc3)CC2)nc(-c2ccc(NC(=O)NC(C)(C)CO)cc2)n1` [Example 8f, 1-[4-[4-[1-(4-fluorophenyl)sulfonylcyclopropyl]-6-[(3S)-3-methylmorpholin-4-yl]pyrimidin-2-yl]phenyl]-3-(1-hydroxy-2-methyl-propan-2-yl)urea] was run?
Answer: Its IC50 is 8.82 nM.

Question: For `C[C@H]1COCCN1c1cc(C2(S(=O)(=O)c3ccc(F)cc3)CC2)nc(-c2ccc(NC(=O)NCCN(C)C)cc2)n1` [Example 8g, 3-(2-dimethylaminoethyl)-1-[4-[4-[1-(4-fluorophenyl)sulfonylcyclopropyl]-6-[(3S)-3-methylmorpholin-4-yl]pyrimidin-2-yl]phenyl]urea], which IC50 is on record?
Answer: Its IC50 is 61.3 nM.

Question: `CCCNC(=O)Nc1ccc(-c2nc(N3CCOC[C@@H]3C)cc(C3(S(=O)(=O)c4ccc(F)cc4)CC3)n2)cc1` [Example 8h, 3-[4-[4-[1-(4-fluorophenyl)sulfonylcyclopropyl]-6-[(3S)-3-methylmorpholin-4-yl]pyrimidin-2-yl]phenyl]-1-propyl-urea] was tested. Which IC50 did it give?
Answer: The IC50 was 1.76 nM.

Question: How did the IC50 turn out when `CC(C)CNC(=O)Nc1ccc(-c2nc(N3CCOC[C@@H]3C)cc(C3(S(=O)(=O)c4ccc(F)cc4)CC3)n2)cc1` [Example 8i, 1-[4-[4-[1-(4-fluorophenyl)sulfonylcyclopropyl]-6-[(3S)-3-methylmorpholin-4-yl]pyrimidin-2-yl]phenyl]-3-(2-methylpropyl)urea] was run?
Answer: The IC50 was 19.8 nM.

Question: `C[C@H]1COCCN1c1cc(C2(S(=O)(=O)c3ccc(F)cc3)CC2)nc(-c2ccc(NC(=O)NCCCO)cc2)n1` [Example 8j, 1-[4-[4-[1-(4-fluorophenyl)sulfonylcyclopropyl]-6-[(3S)-3-methylmorpholin-4-yl]pyrimidin-2-yl]phenyl]-3-(3-hydroxypropyl)urea] was tested. Which IC50 did it give?
Answer: The IC50 was 0.751 nM.

Question: For `C[C@H]1COCCN1c1cc(C2(S(=O)(=O)c3ccc(F)cc3)CC2)nc(-c2ccc(NC(=O)Nc3ccc(C(F)(F)F)cc3)cc2)n1` [Example 8k, 1-[4-[4-[1-(4-fluorophenyl)sulfonylcyclopropyl]-6-[(3S)-3-methylmorpholin-4-yl]pyrimidin-2-yl]phenyl]-3-[4-(trifluoromethyl)phenyl]urea], which IC50 is on record?
Answer: Its IC50 is 17.3 nM.

Question: For `C[C@H]1COCCN1c1cc(C2(S(=O)(=O)c3ccc(F)cc3)CC2)nc(-c2ccc(NC(=O)Nc3cnn(C)c3)cc2)n1` [Example 8m, 1-[4-[4-[1-(4-fluorophenyl)sulfonylcyclopropyl]-6-[(3S)-3-methylmorpholin-4-yl]pyrimidin-2-yl]phenyl]-3-(1-methylpyrazol-4-yl)urea], which IC50 is on record?
Answer: The IC50 was 1.36 nM.

Question: How did the IC50 turn out when `C[C@H]1COCCN1c1cc(C2(S(=O)(=O)C3CCCC3)CC2)nc(-c2ccc(NC(=O)NC3CC3)cc2)n1` [Example 9, 1-[4-[4-(1-Cyclopentylsulfonylcyclopropyl)-6-[(3S)-3-methylmorpholin-4-yl]pyrimidin-2-yl]phenyl]-3-cyclopropyl-urea] was run?
Answer: The IC50 was 1.8 nM.

Question: Which IC50 does the source give for `C[C@H]1COCCN1c1cc(C2(S(=O)(=O)C3CCCC3)CC2)nc(-c2ccc(NC(=O)NC3CCC3)cc2)n1` [Example 9a] here?
Answer: Its IC50 is 12.9 nM.

Question: `CC(C)NC(=O)Nc1ccc(-c2nc(N3CCOC[C@@H]3C)cc(C3(S(=O)(=O)C4CCCC4)CC3)n2)cc1` [Example 9d] was tested. Which IC50 did it give?
Answer: The IC50 was 15.1 nM.

Question: With `CCNC(=O)Nc1ccc(-c2nc(N3CCOC[C@@H]3C)cc(C3(S(=O)(=O)C4CCCC4)CC3)n2)cc1` [Example 9e] as the compound, how does the IC50 read?
Answer: The IC50 was 1.87 nM.

Question: For `CCCNC(=O)Nc1ccc(-c2nc(N3CCOC[C@@H]3C)cc(C3(S(=O)(=O)C4CCCC4)CC3)n2)cc1` [Example 9h], which IC50 is on record?
Answer: The IC50 was 5.7 nM.

Question: `CNC(=O)Nc1ccc(-c2nc(N3CCOC[C@@H]3C)cc(C3(S(=O)(=O)C4CCCC4)CC3)n2)cc1` [Example 9i] was tested. Which IC50 did it give?
Answer: Its IC50 is 2.4 nM.

Question: With `C[C@H]1COCCN1c1cc(C2(S(=O)(=O)C3CCCC3)CC2)nc(-c2ccc(NC(=O)NC(C)(C)CO)cc2)n1` [Example 9k] as the compound, how does the IC50 read?
Answer: The IC50 was 11.5 nM.

Question: Which IC50 does the source give for `C[C@H]1COCCN1c1cc(C2(S(=O)(=O)c3ccccc3C(F)(F)F)CC2)nc(-c2ccc(NC(=O)NC3CC3)cc2)n1` [Example 10, 3-Cyclopropyl-1-[4-[4-[(3S)-3-methylmorpholin-4-yl]-6-[1-[2-(trifluoromethyl)phenyl]sulfonylcyclopropyl]pyrimidin-2-yl]phenyl]urea] here?
Answer: The IC50 was 4.48 nM.

Question: For `C[C@H]1COCCN1c1cc(C2(S(=O)(=O)c3ccccc3C(F)(F)F)CC2)nc(-c2ccc(NC(=O)NC3CCC3)cc2)n1` [Example 10a, 3-cyclobutyl-1-[4-[4-[(3S)-3-methylmorpholin-4-yl]-6-[1-[2-(trifluoromethyl)phenyl]sulfonylcyclopropyl]pyrimidin-2-yl]phenyl]urea], which IC50 is on record?
Answer: Its IC50 is 39.5 nM.

Question: Which IC50 does the source give for `C[C@H]1COCCN1c1cc(C2(S(=O)(=O)c3ccccc3C(F)(F)F)CC2)nc(-c2ccc(NC(=O)Nc3ccccn3)cc2)n1` [Example 10b, 1-[4-[4-[(3S)-3-methylmorpholin-4-yl]-6-[1-[2-(trifluoromethyl)phenyl]sulfonylcyclopropyl]pyrimidin-2-yl]phenyl]-3-pyridin-2-yl-urea] here?
Answer: Its IC50 is 26.6 nM.

Question: For `CC(C)CNC(=O)Nc1ccc(-c2nc(N3CCOC[C@@H]3C)cc(C3(S(=O)(=O)c4ccccc4C(F)(F)F)CC3)n2)cc1` [Example 10c, 1-[4-[4-[(3S)-3-methylmorpholin-4-yl]-6-[1-[2-(trifluoromethyl)phenyl]sulfonylcyclopropyl]pyrimidin-2-yl]phenyl]-3-(2-methylpropyl)urea], which IC50 is on record?
Answer: Its IC50 is 147 nM.

Same assay, conditions: table of enzyme assay Test (a)(ii); read-out: Test (a)(ii) IC50

Question: With `CNC(=O)Nc1ccc(-c2nc(N3CCOC[C@@H]3C)cc(C3(S(=O)(=O)c4ccc(F)cc4)CC3)n2)cc1` [Example 8, 1-[4-[4-[1-(4-Fluorophenyl)sulfonylcyclopropyl]-6-[(3S)-3-methylmorpholin-4-yl]pyrimidin-2-yl]phenyl]-3-methyl-urea] as the compound, how does the IC50 read?
Answer: The IC50 was 0.959 nM.

Question: With `C[C@H]1COCCN1c1cc(C2(S(=O)(=O)c3ccc(F)cc3)CC2)nc(-c2ccc(NC(=O)NCCN(C)C)cc2)n1` [Example 8g, 3-(2-dimethylaminoethyl)-1-[4-[4-[1-(4-fluorophenyl)sulfonylcyclopropyl]-6-[(3S)-3-methylmorpholin-4-yl]pyrimidin-2-yl]phenyl]urea] as the compound, how does the IC50 read?
Answer: The IC50 was 78.4 nM.

Question: With `C[C@H]1COCCN1c1cc(C2(S(=O)(=O)c3ccc(F)cc3)CC2)nc(-c2ccc(NC(=O)Nc3ccccn3)cc2)n1` [Example 8l, 1-[4-[4-[1-(4-fluorophenyl)sulfonylcyclopropyl]-6-[(3S)-3-methylmorpholin-4-yl]pyrimidin-2-yl]phenyl]-3-pyridin-2-yl-urea] as the compound, how does the IC50 read?
Answer: The IC50 was 8.13 nM.
